In paper PMC8609519, “Potent Inhibitor of Human Trypsins from the Aeruginosin Family of Natural Products” (ACS Chemical Biology, 2021):
Entries after “also recorded” stand apart in the source; their conditions may differ.

Legend:
human Factor Xa = target: T1, human Factor Xa (Homo sapiens, UniProt P00742); experiment: Serine protease inhibition, chromogenic substrate S-2222; assay type: biochemical; details: read-out: IC50, human Factor Xa
T1 construct: purchased Sigma
Experimental: (§1) Recombinant trypsinogens-1, -2, and -3 were produced inEscherichia coliand activated to trypsin-1, -2, and -3 as described previously.[45] The enzyme inhibitory activity of suomilide was determined in 96-well plates by adding 10 μL of diluted suomilide (0.21–3400 nM, diluted in ultra-purified water, containing up to 0.027% DMSO), 15 μL of 0.1% bovine serum albumin in 50 mM Tris-buffer saline (BSA/TBS), and 25 μL of each trypsin (1.88 nM). 10 μL of ultra-purified water was used as a control. […] Preincubation of suomilide with trypsin isoenzymes prior to the addition of the substrate was required for maximal inhibition (data not shown). Thus, suomilide was preincubated with trypsins at room temperature for 30 min before the addition of 50 μL of 0.2 mM chromogenic substrate S-2222 (ChromogeniX) in ultra-purified water. The change of absorbance at 405 nm was followed for 15 min (VICTOR X4 multilabel plate reader, PerkinElmer). The experiment was performed three times, each with two replicates (n = 3). The absorbance change during the phase of the substrate reaction in which the absorbance of the control reaction increased linearly over time was determined. The same experiment was performed with plasmin (Sigma) (15 nM) with chromogenic substrate S-2251 (ChromogeniX); plasma KLK (Sigma) (20 nM) with substrate ChromogeniX S-2302 (ChromogeniX); Factor Xa (Sigma) (3 nM) with substrate S-2222; and thrombin (Sigma) (1 nM) with substrate S-2238 (ChromogeniX). Except for urokinase from human kidney cells (Sigma) (125 IU), 15 μL of BSA/TBS with 0.9% NaCl was used. Nine 4-fold dilutions of suomilide were prepared, with 12.5 μM being the highest final concentration. The IC50 values were estimated using Quest Graph, and the standard error was calculated using MS Excel 2013.

[1] = target: T2, recombinant human trypsin-2 (Homo sapiens, UniProt P07478); experiment: as above; assay type: biochemical; details: read-out: IC50, trypsin-2; 30 min preincubation, substrate S-2222, n = 3
T2 construct: made in house; host or cells: Escherichia coli
T2 sequence (P07478 24-247): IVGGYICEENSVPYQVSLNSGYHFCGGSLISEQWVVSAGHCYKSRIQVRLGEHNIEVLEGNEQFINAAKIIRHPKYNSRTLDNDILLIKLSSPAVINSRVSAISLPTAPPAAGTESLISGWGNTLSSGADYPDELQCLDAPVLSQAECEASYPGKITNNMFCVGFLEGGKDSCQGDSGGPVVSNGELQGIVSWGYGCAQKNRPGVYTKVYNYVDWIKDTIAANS
Experimental: as §1

trypsin-1 [2] = target: T3, trypsin-1 (Homo sapiens, UniProt P07477); experiment: as above; assay type: biochemical; details: read-out: IC50, trypsin-1; 30 min preincubation, substrate S-2222, n = 3
T3 construct: made in house; host or cells: Escherichia coli
Experimental: as §1

trypsin-3 [3] = target: T4, trypsin-3 (Homo sapiens, UniProt P35030); experiment: as above; assay type: biochemical; details: read-out: IC50, trypsin-3; 30 min preincubation, substrate S-2222, n = 3
T4 construct: made in house; host or cells: Escherichia coli
T4 sequence (P35030 81-304 limits assumed): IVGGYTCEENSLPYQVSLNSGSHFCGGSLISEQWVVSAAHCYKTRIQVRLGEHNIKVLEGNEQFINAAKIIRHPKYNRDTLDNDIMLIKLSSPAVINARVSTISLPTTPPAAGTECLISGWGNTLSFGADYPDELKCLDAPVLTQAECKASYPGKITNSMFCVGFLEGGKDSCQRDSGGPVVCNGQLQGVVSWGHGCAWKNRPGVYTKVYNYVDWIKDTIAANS
Experimental: as §1

human plasmin = target: T5, human plasmin (Homo sapiens, UniProt P00747); experiment: Serine protease inhibition, chromogenic substrate S-2251; assay type: biochemical; details: read-out: IC50, human plasmin
T5 construct: purchased Sigma
T5 sequence (P00747 581-810 limits assumed): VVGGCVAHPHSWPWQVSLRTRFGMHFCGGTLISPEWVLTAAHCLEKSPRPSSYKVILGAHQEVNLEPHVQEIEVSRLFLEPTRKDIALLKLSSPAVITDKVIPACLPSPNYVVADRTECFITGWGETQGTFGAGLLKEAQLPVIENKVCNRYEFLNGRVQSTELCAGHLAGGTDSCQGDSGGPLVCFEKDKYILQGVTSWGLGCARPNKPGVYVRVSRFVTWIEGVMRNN
T5 sequence (P00747 97-580 partner limits assumed): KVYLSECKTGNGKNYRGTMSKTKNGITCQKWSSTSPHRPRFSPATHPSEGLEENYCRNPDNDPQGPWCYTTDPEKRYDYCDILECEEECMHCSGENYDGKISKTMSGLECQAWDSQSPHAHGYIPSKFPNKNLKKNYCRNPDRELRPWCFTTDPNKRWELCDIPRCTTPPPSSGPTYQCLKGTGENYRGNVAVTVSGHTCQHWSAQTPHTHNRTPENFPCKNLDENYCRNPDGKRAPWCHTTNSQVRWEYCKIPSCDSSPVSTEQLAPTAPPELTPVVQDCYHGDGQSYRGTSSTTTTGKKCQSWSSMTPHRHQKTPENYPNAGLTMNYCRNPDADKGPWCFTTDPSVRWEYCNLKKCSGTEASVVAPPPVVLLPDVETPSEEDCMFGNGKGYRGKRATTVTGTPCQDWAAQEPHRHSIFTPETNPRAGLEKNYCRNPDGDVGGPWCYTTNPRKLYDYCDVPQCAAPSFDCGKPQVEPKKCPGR
Experimental: as §1, with “The same experiment was performed with plasmin (Sigma) (15 nM) with chromogenic substrate S-2251 (ChromogeniX); plasma KLK (Sigma) (20 nM) with substrate ChromogeniX S-2302 (ChromogeniX); Factor Xa (Sigma) (3 nM) with substrate S-2222; and thrombin (Sigma) (1 nM) with substrate S-2238 (ChromogeniX). Except for urokinase from human kidney cells (Sigma) (125 IU), 15 μL of BSA/TBS with 0.9% NaCl was used. Nine 4-fold dilutions of suomilide were prepared, with 12.5 μM being the highest final concentration.” left out

human plasma kallikrein = target: T6, human plasma kallikrein (Homo sapiens, UniProt P03952); experiment: Serine protease inhibition, chromogenic substrate S-2302; assay type: biochemical; details: read-out: IC50, human plasma kallikrein
T6 construct: purchased Sigma
T6 sequence (P03952 391-638 limits assumed): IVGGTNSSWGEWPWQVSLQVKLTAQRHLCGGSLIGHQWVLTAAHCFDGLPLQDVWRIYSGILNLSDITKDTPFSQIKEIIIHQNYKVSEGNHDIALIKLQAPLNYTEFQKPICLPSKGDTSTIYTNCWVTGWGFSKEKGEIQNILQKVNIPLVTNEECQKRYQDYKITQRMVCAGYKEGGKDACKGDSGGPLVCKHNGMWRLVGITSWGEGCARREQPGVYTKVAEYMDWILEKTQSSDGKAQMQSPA
T6 sequence (P03952 20-390 partner limits assumed): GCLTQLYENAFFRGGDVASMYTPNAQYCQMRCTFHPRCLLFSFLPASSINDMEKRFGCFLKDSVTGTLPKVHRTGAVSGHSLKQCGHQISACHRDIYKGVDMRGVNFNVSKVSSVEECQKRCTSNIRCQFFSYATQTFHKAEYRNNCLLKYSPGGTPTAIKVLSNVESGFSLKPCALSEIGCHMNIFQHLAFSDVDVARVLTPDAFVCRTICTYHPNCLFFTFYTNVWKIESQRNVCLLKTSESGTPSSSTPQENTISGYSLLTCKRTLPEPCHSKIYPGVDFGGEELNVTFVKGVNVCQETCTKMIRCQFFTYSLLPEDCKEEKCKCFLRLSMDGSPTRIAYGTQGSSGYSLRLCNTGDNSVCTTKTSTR
Experimental: as §1, with “The same experiment was performed with plasmin (Sigma) (15 nM) with chromogenic substrate S-2251 (ChromogeniX); plasma KLK (Sigma) (20 nM) with substrate ChromogeniX S-2302 (ChromogeniX); Factor Xa (Sigma) (3 nM) with substrate S-2222; and thrombin (Sigma) (1 nM) with substrate S-2238 (ChromogeniX). Except for urokinase from human kidney cells (Sigma) (125 IU), 15 μL of BSA/TBS with 0.9% NaCl was used. Nine 4-fold dilutions of suomilide were prepared, with 12.5 μM being the highest final concentration.” left out

human urokinase = target: T7, human urokinase (Homo sapiens, UniProt P00749); experiment: Serine protease inhibition, urokinase from human kidney cells; assay type: biochemical; details: read-out: IC50, human urokinase
T7 construct: purchased Sigma; host or cells: human kidney cells
Experimental: as §1, with “The same experiment was performed with plasmin (Sigma) (15 nM) with chromogenic substrate S-2251 (ChromogeniX); plasma KLK (Sigma) (20 nM) with substrate ChromogeniX S-2302 (ChromogeniX); Factor Xa (Sigma) (3 nM) with substrate S-2222; and thrombin (Sigma) (1 nM) with substrate S-2238 (ChromogeniX). Except for urokinase from human kidney cells (Sigma) (125 IU), 15 μL of BSA/TBS with 0.9% NaCl was used. Nine 4-fold dilutions of suomilide were prepared, with 12.5 μM being the highest final concentration.” left out

human thrombin = target: T8, human thrombin (Homo sapiens, UniProt P00734); experiment: Serine protease inhibition, chromogenic substrate S-2238; assay type: biochemical; details: read-out: IC50, human thrombin, highest final concentration 12.5 μM
T8 construct: purchased Sigma
Experimental: as §1, with “The same experiment was performed with plasmin (Sigma) (15 nM) with chromogenic substrate S-2251 (ChromogeniX); plasma KLK (Sigma) (20 nM) with substrate ChromogeniX S-2302 (ChromogeniX); Factor Xa (Sigma) (3 nM) with substrate S-2222; and thrombin (Sigma) (1 nM) with substrate S-2238 (ChromogeniX). Except for urokinase from human kidney cells (Sigma) (125 IU), 15 μL of BSA/TBS with 0.9% NaCl was used. Nine 4-fold dilutions of suomilide were prepared, with 12.5 μM being the highest final concentration.” left out

trypsin-1 [4] = target: T3, trypsin-1; experiment: Surface plasmon resonance (Biacore) kinetic analysis; assay type: binding; details: SPR
Experimental: (§2) The binding of suomilide to trypsin-1 and -3 was analyzed with surface plasmon resonance in Biacore 2000 instrumentation (Cytiva). […] The binding was analyzed using Tris-buffered saline (pH 7.4) containing 0.01% DMSO as the running buffer and a flow rate of 30 μL min^–1. The kinetics of the suomilide interaction with the trypsins were measured by varying suomilide concentrations from 250 to 4000 nM with a contact time of 5 min and a dissociation phase of 20 min. After the completion of the dissociation phase, the flow cells were regenerated with 10 mM Glycine, pH 1.7. The data were evaluated by first subtracting the sensorgrams obtained from the trypsin-3 mutant control flow cell from those obtained from the flow cells containing trypsin-1 or -3 for each suomilide concentration separately and overlaying the resulting sensorgrams for each ligand. Association and dissociation rate constants were obtained by the Langmuir global fit model (BiaEvaluation Software, Cytiva). The residence time was calculated as a reciprocal of the […].

trypsin-3 [5] = target: T4, trypsin-3; experiment: as above; assay type: binding; details: SPR
Experimental: as §2

[6] = tested on: PC-3M prostate cancer cells; experiment: Transwell cell invasion assay through Matrigel; assay type: cell-based, human; details: 3.3 μM, 4 days, Transwell with Matrigel
Experimental: (§3) PC-3M prostate cancer cells[46] were cultured in Ham’s F12 Nutrient Mix with GlutaMAX (Gibco), supplemented with 10% fetal calf serum (FCS), 100 IU mL^–1 penicillin, 100 μg mL^–1 streptomycin, and 0.15% sodium bicarbonate at 37 °C in a humidified, CO2-controlled (5%) incubator. For the invasion assay, PC-3M cells (1.45 × 10^5) in a serum-free medium containing 0 or 3.3 μM suomilide were added into polycarbonate membrane Transwell inserts with 8.0 μm pore size (Thermo Fisher) covered with 100 μL of the phenol red-free Matrigel basement membrane matrix (Corning) diluted 1:30 with phosphate-buffered saline. The inserts were placed into a 24-well plate containing 750 μL of the culture medium with 10% FCS and incubated for 4 days at 37 °C in a humidified, CO2-controlled (5%) incubator. Matrigel and the noninvasive cells were removed using cotton swabs, and the membranes were stained with 0.09% crystal violet for 10 min. The experiment was performed twice, both with four replicates (n = 2). The invasion was quantitated from microscopic images (three panels from each of the replicates) using Fiji ImageJ. […] After 3 days, 10 μL/well CCK-8 solution (Cell Counting Kit-8, Dojindo) was added, and absorbance at 450 nm was measured after 1.5 h incubation. […]

[7] = tested on: PC-3M prostate cancer cells; experiment: Cell proliferation assay (CCK-8); assay type: cell-based, human; details: 3.3 μM, 3 days, cells on plastic surface
Experimental: as §3

[8] = tested on: unspecified but most likely non-human trypsin isoenzyme; parameters: method as in doi:10.1016/s0040-4039(97)01193-3; details: cited from earlier work
thrombin = tested on: thrombin; parameters: method as in doi:10.1016/s0040-4039(97)01193-3; details: cited from earlier work
plasmin = tested on: plasmin; parameters: method as in doi:10.1016/s0040-4039(97)01193-3; details: cited from earlier work
all three human trypsins = tested on: all three human trypsins; parameters: method as in PMID 28463992; details: equally inhibits all three human trypsins; cited from earlier work

T1 sequence (P00742 235-488 limits assumed): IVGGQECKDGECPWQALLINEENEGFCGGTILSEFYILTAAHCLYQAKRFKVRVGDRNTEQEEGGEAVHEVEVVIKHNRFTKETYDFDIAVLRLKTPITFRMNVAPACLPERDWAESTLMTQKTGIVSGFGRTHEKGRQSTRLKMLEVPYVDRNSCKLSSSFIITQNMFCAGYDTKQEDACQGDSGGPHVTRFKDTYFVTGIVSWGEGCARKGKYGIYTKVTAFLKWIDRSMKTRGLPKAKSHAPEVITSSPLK
T1 sequence (P00742 41-179 partner limits assumed): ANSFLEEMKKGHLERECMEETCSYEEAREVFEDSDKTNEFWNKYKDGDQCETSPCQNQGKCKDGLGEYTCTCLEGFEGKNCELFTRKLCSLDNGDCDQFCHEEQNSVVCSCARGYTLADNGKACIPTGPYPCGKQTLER

CCCCCC(=O)OCC1OC(OC2CC3C(O)C4(C2)OC(=O)NC4C(C(=O)NCCC2=CCN(C(=N)N)C2)N3C(=O)C(NC(=O)C(COS(=O)(=O)O)OC)C(C)CC)C(OC(=O)CCCCC)C(O)C1O (stereo not drawn) [suomilide]
IC50 (human Factor Xa): 114 ± 2 nM
IC50 [1]: 4.7 nM
IC50 (trypsin-1 [2]): 104 nM
IC50 (trypsin-3 [3]): 11.5 nM
IC50 (human plasmin): 7.6 ± 2.3 nM
IC50 (human plasma kallikrein): 82 ± 24 nM
IC50 (human urokinase): 7.1 ± 1.36 µM
IC50 (human thrombin): > 12.5 µM
kon (trypsin-1 [4]; immobilized trypsin-1, Langmuir global fit, read-out: ka (association rate constant), trypsin-1): 33000 M⁻¹ s⁻¹
koff (trypsin-1 [4]; immobilized trypsin-1, Langmuir global fit, read-out: kd (dissociation rate constant), trypsin-1): 0.011 s⁻¹
residence time (trypsin-1 [4]; calculated as reciprocal of the dissociation constant, read-out: residence time (τ), trypsin-1): 1.5 min
kon (trypsin-3 [5]; immobilized trypsin-3, Langmuir global fit, read-out: ka (association rate constant), trypsin-3): 12000 M⁻¹ s⁻¹
koff (trypsin-3 [5]; immobilized trypsin-3, Langmuir global fit, read-out: kd (dissociation rate constant), trypsin-3): 0.00029 s⁻¹
residence time (trypsin-3 [5]; calculated as reciprocal of the dissociation constant, read-out: residence time (τ), trypsin-3): 57 min
effect on PC-3M cell invasion [6]: inhibited the invasion; also recorded: significantly inhibited
effect on PC-3M cell proliferation [7]: without affecting cell proliferation; also recorded: did not affect
inhibition of trypsin (concentration range) [8]: low micromolar concentrations
IC50 ([8]; unspecified, most likely non-human trypsin): 1800 nM
inhibition of thrombin (concentration range) (thrombin): low micromolar concentrations
inhibition of plasmin (concentration range) (plasmin): low micromolar concentrations

N=C(N)c1ccc(/N=N/Nc2ccc(C(=N)N)cc2)cc1 [diminazene]
inhibition of human trypsins (concentration range) (all three human trypsins): micromolar concentrations
